Experimental data: patent US9694011B2, “Substituted pyrazolopyrimidines as kinases inhibitors” (JIANGSU MEDOLUTION LTD, priority 2013, dated 2017)

Key:
BTK = BTK (Homo sapiens (Human), UniProt Q06187); test: in vitro kinase binding assay (Kd, phage-tagged kinase, qPCR)
Experimental: (§1) An in vitro assay which determines the ability of a test compound to inhibit EGFR (L858R), EGFR (L858R,T790M) and BTK kinases.
(§2) Kinase-tagged T7 phage strains were prepared in an E. coli host derived from the BL21 strain. E. coli were grown to log-phase and infected with T7 phage and incubated with shaking at 32° C. until lysis. The lysates were centrifuged and filtered to remove cell debris. The remaining kinases were produced in HEK-293 cells and subsequently tagged with DNA for qPCR detection. Streptavidin-coated magnetic beads were treated with biotinylated small molecule ligands for 30 minutes at room temperature to generate affinity resins for kinase assays. The liganded beads were blocked with excess biotin and washed with blocking buffer (SeaBlock (Pierce), 1% BSA, 0.05% Tween 20, 1 mM DTT) to remove unbound ligand and to reduce non-specific binding. Binding reactions were assembled by combining kinases, liganded affinity beads, and test compounds in 1× binding buffer (20% SeaBlock, 0.17×PBS, 0.05% Tween 20, 6 mM DTT). All reactions were performed in polystyrene 96-well plates in a final volume of 0.135 ml. The assay plates were incubated at room temperature with shaking for 1 hour and the affinity beads were washed with wash buffer (1×PBS, 0.05% Tween 20). The beads were then re-suspended in elution buffer (lx PBS, 0.05% Tween 20, 0.5 μM non-biotinylated affinity ligand) and incubated at room temperature with shaking for 30 minutes. The kinase concentration in the eluates was measured by qPCR.
(§3) An 11-point 3-fold serial dilution of each test compound was prepared in 100% DMSO at 100× final test concentration and subsequently diluted to 1× in the assay (final DMSO concentration=1%). Kds were determined using a compound top concentration=10,000 nM. If the initial Kd determined was <0.5 nM (the lowest concentration tested), the measurement was repeated with a serial dilution starting at a lower top concentration.
(§4) Binding constants (Kds) were calculated with a standard dose-response curve using the Hill equation: Response=Background+(Signal−Background)/(1+(Kd^Hill Slope/Dose^Hill Slope)). The Hill Slope was set to −1. Curves were fitted using a non-linear least square fit with the Levenberg-Marquardt algorithm.

EGFR (L858R) = EGFR (L858R) (Homo sapiens (Human), UniProt P00533, L858R); test: as above
Experimental: as §1, §2, §3, §4

EGFR (L858R,T790M) = EGFR (L858R,T790M) (Homo sapiens (Human), UniProt P00533, L858R/T790M); test: as above
Experimental: as §1, §2, §3, §4

[1] = test system: cancer cell line NCI-H1975; test: NCI-H1975 cell proliferation assay (MTT); assay type: cell-based; conditions: Homo sapiens, NCI-H1975 cells, 72 hours treatment
Experimental: A representative number of compounds were assayed against cancer cell line NCI-H1975 using the cell proliferation assay:
1. 5×10^3 cells per well in 100 μl of medium were seeded in 96-well plate, here the medium contained 5% FBS
2. 24 hours later, 100 μl fresh medium was added with various concentrations of compounds into each well, while the medium here was free of FBS
3. After the cells were treated with compounds for 72 hours, 20 μl MTT (5 mg/ml) was added into each well, and then the assay plate was incubated at 37° C. for 4 more hours.
4. The assay plate was centrifuged at 800 g for 10 min. The medium was aspirated, 150 μl DMSO was added into each well. The plate was gently shaked for 10 min.
5. The absorbance at 570 nm was measured on the plate reader.

EGFR (L858R), sequence (P00533 25-1210 L858R): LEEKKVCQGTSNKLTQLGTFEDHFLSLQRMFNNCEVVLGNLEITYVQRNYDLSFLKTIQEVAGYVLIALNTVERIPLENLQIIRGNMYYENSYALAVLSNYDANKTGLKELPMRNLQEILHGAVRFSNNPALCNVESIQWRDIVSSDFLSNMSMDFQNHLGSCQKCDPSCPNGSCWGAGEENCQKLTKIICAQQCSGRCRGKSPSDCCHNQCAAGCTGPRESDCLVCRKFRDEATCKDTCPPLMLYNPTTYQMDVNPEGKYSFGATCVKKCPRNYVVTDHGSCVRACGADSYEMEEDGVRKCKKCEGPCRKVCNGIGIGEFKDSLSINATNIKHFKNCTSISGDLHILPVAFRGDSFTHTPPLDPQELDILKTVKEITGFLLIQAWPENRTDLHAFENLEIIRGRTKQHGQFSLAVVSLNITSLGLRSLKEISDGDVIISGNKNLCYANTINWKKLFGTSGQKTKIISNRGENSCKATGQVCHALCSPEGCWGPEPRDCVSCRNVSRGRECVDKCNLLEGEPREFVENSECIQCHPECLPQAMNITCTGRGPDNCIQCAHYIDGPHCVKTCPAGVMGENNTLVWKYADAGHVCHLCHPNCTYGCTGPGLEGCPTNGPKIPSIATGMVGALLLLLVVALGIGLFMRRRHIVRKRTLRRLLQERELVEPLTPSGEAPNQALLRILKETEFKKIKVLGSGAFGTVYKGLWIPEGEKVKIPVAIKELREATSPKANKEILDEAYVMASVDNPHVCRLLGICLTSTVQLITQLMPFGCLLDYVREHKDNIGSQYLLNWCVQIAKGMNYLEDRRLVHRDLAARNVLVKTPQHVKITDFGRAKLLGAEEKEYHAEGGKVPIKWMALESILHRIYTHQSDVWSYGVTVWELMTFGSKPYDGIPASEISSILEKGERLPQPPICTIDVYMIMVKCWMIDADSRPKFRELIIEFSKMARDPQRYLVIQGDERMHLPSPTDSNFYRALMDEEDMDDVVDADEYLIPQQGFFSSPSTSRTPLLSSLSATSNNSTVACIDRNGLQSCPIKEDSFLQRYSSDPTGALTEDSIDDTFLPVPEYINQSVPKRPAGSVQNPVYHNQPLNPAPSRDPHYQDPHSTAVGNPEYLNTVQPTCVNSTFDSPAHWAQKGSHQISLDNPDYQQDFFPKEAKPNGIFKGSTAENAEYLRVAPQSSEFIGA
BTK, sequence (Q06187 whole entry): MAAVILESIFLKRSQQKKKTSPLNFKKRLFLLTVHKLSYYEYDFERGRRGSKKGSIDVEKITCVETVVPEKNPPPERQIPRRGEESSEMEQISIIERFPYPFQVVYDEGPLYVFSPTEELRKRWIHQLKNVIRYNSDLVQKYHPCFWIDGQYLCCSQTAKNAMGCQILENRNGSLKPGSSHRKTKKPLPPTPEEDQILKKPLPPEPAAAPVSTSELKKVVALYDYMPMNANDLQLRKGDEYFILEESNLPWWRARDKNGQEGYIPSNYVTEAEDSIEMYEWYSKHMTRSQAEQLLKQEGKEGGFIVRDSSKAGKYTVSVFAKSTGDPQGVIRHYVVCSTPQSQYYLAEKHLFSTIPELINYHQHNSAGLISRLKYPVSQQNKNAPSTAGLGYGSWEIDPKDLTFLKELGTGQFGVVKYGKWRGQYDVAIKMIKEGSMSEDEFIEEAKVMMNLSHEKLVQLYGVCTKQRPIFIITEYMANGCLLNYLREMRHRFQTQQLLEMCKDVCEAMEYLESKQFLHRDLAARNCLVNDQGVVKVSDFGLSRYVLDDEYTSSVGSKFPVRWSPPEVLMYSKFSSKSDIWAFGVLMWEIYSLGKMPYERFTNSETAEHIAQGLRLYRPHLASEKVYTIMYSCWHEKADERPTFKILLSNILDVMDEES
EGFR (L858R,T790M), sequence (P00533 25-1210 T790M/L858R): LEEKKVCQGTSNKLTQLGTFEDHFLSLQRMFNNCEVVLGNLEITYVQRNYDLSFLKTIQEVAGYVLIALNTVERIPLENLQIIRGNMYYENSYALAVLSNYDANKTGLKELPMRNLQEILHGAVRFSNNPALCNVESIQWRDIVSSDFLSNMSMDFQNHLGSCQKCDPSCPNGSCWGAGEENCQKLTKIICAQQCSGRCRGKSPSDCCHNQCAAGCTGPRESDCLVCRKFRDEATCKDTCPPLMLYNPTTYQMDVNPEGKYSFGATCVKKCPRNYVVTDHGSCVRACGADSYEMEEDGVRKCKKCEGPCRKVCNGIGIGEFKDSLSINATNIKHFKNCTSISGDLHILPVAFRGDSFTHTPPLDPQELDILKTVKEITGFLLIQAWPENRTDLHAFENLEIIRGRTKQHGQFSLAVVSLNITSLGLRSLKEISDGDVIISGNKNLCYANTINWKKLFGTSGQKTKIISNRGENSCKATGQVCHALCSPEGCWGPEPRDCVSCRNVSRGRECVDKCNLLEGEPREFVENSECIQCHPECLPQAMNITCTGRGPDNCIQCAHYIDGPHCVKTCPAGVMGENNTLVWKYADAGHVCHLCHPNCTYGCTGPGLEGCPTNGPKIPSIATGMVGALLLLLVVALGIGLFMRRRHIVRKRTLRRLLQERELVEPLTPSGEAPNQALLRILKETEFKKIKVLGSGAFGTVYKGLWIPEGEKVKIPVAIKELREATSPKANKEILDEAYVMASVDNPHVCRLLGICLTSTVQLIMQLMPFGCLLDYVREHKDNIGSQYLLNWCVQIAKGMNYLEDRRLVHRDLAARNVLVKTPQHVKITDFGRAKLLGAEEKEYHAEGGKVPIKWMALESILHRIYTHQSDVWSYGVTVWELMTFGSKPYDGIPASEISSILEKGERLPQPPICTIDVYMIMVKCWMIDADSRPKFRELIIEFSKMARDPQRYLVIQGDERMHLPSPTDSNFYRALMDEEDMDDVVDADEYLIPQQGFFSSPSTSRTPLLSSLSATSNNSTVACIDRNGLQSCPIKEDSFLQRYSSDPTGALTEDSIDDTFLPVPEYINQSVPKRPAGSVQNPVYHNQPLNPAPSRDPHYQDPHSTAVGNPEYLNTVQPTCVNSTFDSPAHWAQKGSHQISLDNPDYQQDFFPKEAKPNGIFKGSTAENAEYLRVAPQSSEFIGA

Row | SMILES | Kd (BTK) | Kd (EGFR (L858R)) | Kd (EGFR (L858R,T790M)) | IC50 [1]
1 | C=CC(=O)N1CCC[C@@H](n2nc(-c3ccc(Oc4ccc(F)cc4)cc3)c3c(N)ncnc32)C1 [Compound 17, (R)-1-(3-(4-amino-3-(4-(4-fluorophenoxy)phenyl)-1H-pyrazolo[3,4-d]pyrimidin-1-yl)piperidin-1-yl)prop-2-en-1-one] | < 10 nM | 54 nM | 270 nM | 
2 | C=CC(=O)N1CCC[C@@H](n2nc(-c3ccc(Oc4ccccc4)c(Cl)c3)c3c(N)ncnc32)C1 [Compound 18, (R)-1-(3-(4-amino-3-(3-chloro-4-phenoxyphenyl)-1H-pyrazolo[3,4-d]pyrimidin-1-yl)piperidin-1-yl)prop-2-en-1-one] | < 10 nM | 6.3 nM | 9.3 nM | 494 nM
3 | C=CC(=O)N1CCC[C@@H](n2nc(-c3ccc(Oc4ccccc4)cc3)c3c(N)ncnc32)C1 [Ibrutinib, reference compound] |  |  |  | > 2000 nM
